From US10435388B2, “Selective inhibitors of clinically important mutants of the EGFR tyrosine kinase” (CS PHARMATECH LIMITED, priority 2016, dated 2019) come the findings set out here.

Conditions in all cases: cellular proliferation, several runs
One experiment deals with H1975 cells (DM). In words: H1975 inhibition assay (cell proliferation), Method B. The experiment is classed as cell-based. The method, then:
(§1) Cell Proliferation Assays—Method B
H1975 Inhibition Assay (Cell Proliferation).
(§2) Test compounds were dissolved in DMSO at 30 mM.
(§3) The final concentration was 1,000 cells/well. Add medium only as low control. […] 5% CO2 incubator for 72 hours.
(§4) After 72 hours incubation, remove the plates from incubator and equilibrate at room temperature for 15 minutes. Incubate the CellTiter Glo reagents (Promega, G9243) at 37° C. before the experiment. The buffer was equilibrated to room temperature and used to dissolve the substrate. To determine the cell viability, add 40 μL of CellTiter-Glo reagent into each well to be detected (at 1:1 to culture medium). Then the place the plates at room temperature for 30 min followed by read on EnSpire (PerkinElmer).
(§5) For estimation of IC50, the luminescence readout are transformed to % Inhibition by applying the following equation: The IC50 was then
(§6) [formula] calculated by fitting in XLFit to a four parameters logistic curve.

The subject of the next experiment is A431 cells (WT). In words: A431 inhibition assay (cell proliferation), Method B. The format is cell-based, human. As to the method: as §1
A431 Inhibition Assay, (Cell Proliferation).
The rest procedure was conducted in the same manner as described above for H1975 cells.

In the next experiment the test system is PC9 cells (SM). Kind of experiment: PC-9 growth inhibition assay (cell proliferation), Method B. The experiment is classed as cell-based, human. As to the method: as §1, §2, §3, §4, §5, §6
PC-9 Growth Inhibition Assay (Cell Proliferation).
The inhibition assay of PC-9 cells was conducted in the same manner as described above for H1975 cells.

pIC50: −log10 of the molar value. Where a name gives a salt, the structure may show the parent alone.

Regarding `C=CC(=O)Nc1cc(Nc2nccc(-c3c[nH]c4c(=O)[nH]ccc34)n2)c(OC)cc1N(C)CCN(C)C` [Example 22, N-(2-((2-(Dimethylamino)ethyl)(methyl)amino)-4-methoxy-5-((4-(7-oxo-6,7-dihydro-1H-pyrrolo[2,3-c]pyridin-3-yl)pyrimidin-2-yl)amino)phenyl) acrylamide], the negative logarithm of the IC50 (pIC50) is 6.86 in the experiment with H1975 cells (DM) (Homo sapiens, NCI-H1975, 72 h); 7.03 with H1975 cells (DM) (72 h); 5.77 in the experiment on A431 cells (WT) (Homo sapiens, A-431, 72 h); 5.92 with A431 cells (WT) (72 h); 7.20 in the experiment with PC9 cells (SM) (Homo sapiens, PC-9, 72 h); 7.28 in the experiment with PC9 cells (SM) (72 h).

For the molecule `C=CC(=O)Nc1cc(Nc2ncc(Cl)c(-c3cncc(C(N)=O)c3)n2)c(OC)cc1N(C)CCN(C)C` [Example 24, 5-(2-((5-Acrylamido-4-((2-(dimethylamino)ethyl)(methyl)amino)-2-methoxyphenyl)amino)-5-chloropyrimidin-4-yl)nicotinamide hydrochloride], the pIC50 in the experiment with H1975 cells (DM) (Homo sapiens, NCI-H1975, 72 h) was 6.99; in the experiment with A431 cells (WT) (Homo sapiens, A-431, 72 h), 5.16; in the experiment on PC9 cells (SM) (Homo sapiens, PC-9, 72 h) it was 7.17.

Consider `C=CC(=O)Nc1cc(Nc2ncc(Cl)c(-c3ccc(NC)nc3)n2)c(OC)cc1N(C)CCN(C)C` [Example 25, N-(5-((5-Chloro-4-(6-(methylamino)pyridin-3-yl)pyrimidin-2-yl)amino)-2-((2-(dimethylamino)ethyl)(methyl)amino)-4-methoxyphenyl) acrylamide], for which the pIC50 was 7.70 in the experiment with H1975 cells (DM) (Homo sapiens, NCI-H1975, 72 h); 5.68 in the experiment on A431 cells (WT) (Homo sapiens, A-431, 72 h); 7.20 in the experiment on PC9 cells (SM) (Homo sapiens, PC-9, 72 h).

For `C=CC(=O)Nc1cc(Nc2ncc(Cl)c(-c3ccc(N(C)C)nc3)n2)c(OC)cc1N(C)CCN(C)C` [Example 26, N-(5-((5-Chloro-4-(6-(dimethylamino)pyridin-3-yl)pyrimidin-2-yl)amino)-2-((2-(dimethylamino)ethyl)(methyl)amino)-4-methoxyphenyl) acrylamide], the negative logarithm of the IC50 (pIC50) in the experiment on H1975 cells (DM) (Homo sapiens, NCI-H1975, 72 h) is 7.60; in the experiment with A431 cells (WT) (Homo sapiens, A-431, 72 h), 5.99; with PC9 cells (SM) (Homo sapiens, PC-9, 72 h), 7.43.

Consider `C=CC(=O)Nc1cc(Nc2nccc(-c3cnc(NC)c(C(N)=O)c3)n2)c(OC)cc1N(C)CCN(C)C` [Example 28, 5-(2-((5-Acrylamido-4-((2-(dimethylamino)ethyl)(methyl)amino)-2-methoxyphenyl)amino)pyrimidin-4-yl)-2-(methylamino)nicotinamide], for which the pIC50 is 5.65 in the experiment on A431 cells (WT) (Homo sapiens, A-431, 72 h); 5.77 in the experiment on A431 cells (WT) (72 h); 7.66 in the experiment with PC9 cells (SM) (Homo sapiens, PC-9, 72 h); 7.58 in the experiment with PC9 cells (SM) (72 h).

Consider `C=CC(=O)Nc1cc(Nc2nccc(-n3nc(C(N)=O)c4c3CCC4)n2)c(OC)cc1N(C)CCN(C)C` [Example 29, 1-(2-((5-Acrylamido-4-((2-(dimethylamino)ethyl)(methyl)amino)-2-methoxyphenyl)amino)pyrimidin-4-yl) cyclopenta[c]pyrazole-3-carboxamide], for which the negative logarithm of the IC50 (pIC50) with H1975 cells (DM) (Homo sapiens, NCI-H1975, 72 h) was 8.28; with A431 cells (WT) (Homo sapiens, A-431, 72 h) it was 6.11; in the experiment on PC9 cells (SM) (Homo sapiens, PC-9, 72 h), 7.63.

For the molecule `C=CC(=O)Nc1cc(Nc2nccc(-c3cc(C(N)=O)c4c(c3)c(Cl)cn4C)n2)c(OC)cc1N(C)CCN(C)C` [Example 32, 5-(2-((5-Acrylamido-4-((2-(dimethylamino)ethyl)(methyl)amino)-2-methoxyphenyl)amino)pyrimidin-4-yl)-3-chloro-1N-methyl-1H-indole-7-carboxamide hydrochloride], the pIC50 was 8.41 in the experiment on H1975 cells (DM) (Homo sapiens, NCI-H1975, 72 h); 8.49 in the experiment with H1975 cells (DM) (72 h, hydrochloride); 5.97 with A431 cells (WT) (Homo sapiens, A-431, 72 h); 6.11 with A431 cells (WT) (72 h, hydrochloride); 8.07 with PC9 cells (SM) (Homo sapiens, PC-9, 72 h); 7.92 with PC9 cells (SM) (72 h, hydrochloride).

For `C=CC(=O)Nc1cc(Nc2nccc(-c3c[nH]c(=O)c4c3ccn4C)n2)c(OC)cc1N(C)CCN(C)C` [Example 33, N-(2-((2-(Dimethylamino)ethyl)(methyl)amino)-4-methoxy-5-((4-(1N-methyl-7-oxo-6,7-dihydro-1H-pyrrolo[2,3-c]pyridin-4-yl)pyrimidin-2-yl)amino)phenyl) acrylamide], the negative-log IC50 (pIC50) with H1975 cells (DM) (Homo sapiens, NCI-H1975, 72 h) is 8.20; in the experiment with A431 cells (WT) (Homo sapiens, A-431, 72 h), 7.05; in the experiment on PC9 cells (SM) (Homo sapiens, PC-9, 72 h) it was 8.00.

With `C=CC(=O)Nc1cc(Nc2nccc(-n3nc(C(F)F)c4ccccc43)n2)c(OC)cc1N(C)CCN(C)C` [Example 35, N-(5-((4-(3-(Difluoromethyl)-1H-indazol-1-yl)pyrimidin-2-yl)amino)-2-((2-(dimethylamino)ethyl)(methyl)amino)-4-methoxyphenyl) acrylamide hydrochloride], the pIC50 with H1975 cells (DM) (Homo sapiens, NCI-H1975, 72 h) was 7.53; in the experiment on A431 cells (WT) (Homo sapiens, A-431, 72 h), 5.70; with PC9 cells (SM) (Homo sapiens, PC-9, 72 h), 7.48.

As to `C=CC(=O)Nc1cc(Nc2nccc(-c3cc(C)c[nH]c3=O)n2)c(OC)cc1N(C)CCN(C)C` [Example 37, N-(2-((2-(Dimethylamino)ethyl)(methyl)amino)-4-methoxy-5-((4-(5-methyl-2-oxo-1,2-dihydropyridin-3-yl)pyrimidin-2-yl)amino)phenyl) acrylamide], the negative logarithm of the IC50 (pIC50) with H1975 cells (DM) (Homo sapiens, NCI-H1975, 72 h) is 7.66; in the experiment with A431 cells (WT) (Homo sapiens, A-431, 72 h), 6.23; in the experiment with PC9 cells (SM) (Homo sapiens, PC-9, 72 h), 7.66.

In the case of `C=CC(=O)Nc1cc(Nc2ncc(Cl)c(-c3c[nH]c(=O)c(C)c3)n2)c(OC)cc1N(C)CCN(C)C` [Example 38, N-(5-((5-Chloro-4-(3-methyl-2-oxo-1,6-dihydropyridin-5-yl)pyrimidin-2-yl)amino)-2-((2-(dimethylamino)ethyl)(methyl)amino)-4-methoxyphenyl) acrylamide], the pIC50 is 7.09 in the experiment on H1975 cells (DM) (Homo sapiens, NCI-H1975, 72 h); 5.88 in the experiment on A431 cells (WT) (Homo sapiens, A-431, 72 h); 7.08 in the experiment with PC9 cells (SM) (Homo sapiens, PC-9, 72 h).

`C=CC(=O)Nc1cc(Nc2nccc(-c3c[nH]c4c(C(=O)NC)cccc34)n2)c(OC)cc1N(C)CCN(C)C` [Example 39, N-Methyl 3-(2-((5-acrylamido-4-((2-(dimethylamino)ethyl)(methyl)amino)-2-methoxyphenyl)amino)pyrimidin-4-yl)-1H-indole-7-carboxamide]: the pIC50 with H1975 cells (DM) (Homo sapiens, NCI-H1975, 72 h) was 9.28; with A431 cells (WT) (Homo sapiens, A-431, 72 h), 7.37; in the experiment with PC9 cells (SM) (Homo sapiens, PC-9, 72 h), 9.13.

With `C=CC(=O)Nc1cc(Nc2nccc(-c3cc(NC)cc4c3ccn4C)n2)c(OC)cc1N(C)CCN(C)C` [Example 40, N-(5-(4-(1-Methyl-6-(methylamino)-1H-indol-4-yl)pyrimidin-2-ylamino)-2-(N-(2-(dimethylamino)ethyl)-N-methylamino)-4-methoxyphenyl) acrylamide], the pIC50 is 7.36 in the experiment with H1975 cells (DM) (Homo sapiens, NCI-H1975, 72 h); 5.73 in the experiment with A431 cells (WT) (Homo sapiens, A-431, 72 h); 7.20 with PC9 cells (SM) (Homo sapiens, PC-9, 72 h).

Turning to `C=CC(=O)Nc1cc(Nc2nccc(-n3nc(NS(C)(=O)=O)c4ccccc43)n2)c(OC)cc1N(C)CCN(C)C` [Example 44, N-(5-(4-(3-(N-methanesulfonylamido)-1H-indazol-1-yl)pyrimidin-2-ylamino)-2-(N-(2-(dimethylamino)ethyl)-N-methylamino)-4-methoxyphenyl) acrylamide], the negative logarithm of the IC50 (pIC50) in the experiment with H1975 cells (DM) (Homo sapiens, NCI-H1975, 72 h) is 6.76; in the experiment with A431 cells (WT) (Homo sapiens, A-431, 72 h), 5.04; with PC9 cells (SM) (Homo sapiens, PC-9, 72 h) it was 6.32.

Take `C=CC(=O)Nc1cc(Nc2nccc(-c3c[nH]c4c(-c5cc[nH]n5)cccc34)n2)c(OC)cc1N(C)CCN(C)C` [Example 46, N-(5-(4-(7-(1H-Pyrazol-3-yl)-1H-indol-3-yl)pyrimidin-2-ylamino)-2-(N-(2-(dimethylamino)ethyl)-N-methylamino)-4-methoxyphenyl) acrylamide]: the pIC50 in the experiment with H1975 cells (DM) (Homo sapiens, NCI-H1975, 72 h) was 6.94; in the experiment with A431 cells (WT) (Homo sapiens, A-431, 72 h), 6.60; in the experiment on PC9 cells (SM) (Homo sapiens, PC-9, 72 h), 7.67.

As to `C=CC(=O)Nc1cc(Nc2ncc(Cl)c(-c3cc(C(N)=O)cc4c3ccn4C)n2)c(OC)cc1N(C)CCN(C)C` [Example 47, 4-(2-(5-Acrylamido-4-((2-(dimethylamino)ethyl)(methyl)amino)-2-methoxyphenylamino)-5-chloropyrimidin-4-yl)-1-methyl-1H-indole-6-carboxamide], the pIC50 was 8.06 in the experiment on H1975 cells (DM) (Homo sapiens, NCI-H1975, 72 h); 6.39 with A431 cells (WT) (Homo sapiens, A-431, 72 h); 7.91 with PC9 cells (SM) (Homo sapiens, PC-9, 72 h).

Turning to `C=CC(=O)Nc1cc(Nc2nccc(-c3c[nH]c4c(C(C)(C)C)cccc34)n2)c(OC)cc1N(C)CCN(C)C` [Example 48, N-(5-(4-(7-t-Butyl-1H-indol-3-yl)pyrimidin-2-ylamino)-2-(N-(2-(dimethylamino)ethyl)-N-methylamino)-4-methoxyphenyl) acrylamide], the negative logarithm of the IC50 (pIC50) in the experiment with H1975 cells (DM) (Homo sapiens, NCI-H1975, 72 h) is 8.46; in the experiment on A431 cells (WT) (Homo sapiens, A-431, 72 h), 6.58; with PC9 cells (SM) (Homo sapiens, PC-9, 72 h), 8.40.

For the molecule `C=CC(=O)Nc1cc(Nc2nccc(-n3cc(C(N)=O)c4ncccc43)n2)c(OC)cc1N(C)CCN(C)C` [Example 49, 1-(2-(5-Acrylamido-4-((2-(dimethylamino)ethyl)(methyl)amino)-2-methoxyphenylamino)pyrimidin-4-yl)-1H-pyrrolo[3,2-b]pyridine-3-carboxamide], the pIC50 is 8.74 with H1975 cells (DM) (Homo sapiens, NCI-H1975, 72 h); 6.86 in the experiment on A431 cells (WT) (Homo sapiens, A-431, 72 h); 9.21 with PC9 cells (SM) (Homo sapiens, PC-9, 72 h).

With `C=CC(=O)Nc1cc(Nc2nccc(-c3c[nH]c4c(N(C)C)nccc34)n2)c(OC)cc1N(C)CCN(C)C` [Example 50, N-(5-(4-(7-(Dimethylamino)-1H-pyrrolo[2,3-c]pyridin-3-yl)pyrimidin-2-ylamino)-2-(N-(2-(dimethylamino)ethyl)-N-methylamino)-4-methoxyphenyl) acrylamide], the pIC50 was 8.12 in the experiment with H1975 cells (DM) (Homo sapiens, NCI-H1975, 72 h); 6.93 in the experiment on A431 cells (WT) (Homo sapiens, A-431, 72 h); 7.84 in the experiment on PC9 cells (SM) (Homo sapiens, PC-9, 72 h).

By pIC50 is commonly meant −log10 of the IC50, conventionally taken in molar units. Low values mean a high IC50, high ones a low IC50.
